Results: the NIST ThermoML archive (doi:10.1021/je700193w)

Legend:
[1] = 101.33 kPa, Liquid
[2] = excess molar enthalpy (molar enthalpy of mixing); xn = mol fraction of the nth substance listed; details: 101 kPa, Liquid
[3] = xn = mol fraction of the nth substance listed; details: 101 kPa, Liquid

CC(C)CO [2-methyl-1-propanol]
[1]
Details	mass density [kg/m3]	speed of sound [m/s]
283.15 K	809.36	1238.7
298.15 K	798.03	1188
303.15 K	794.17	1174.3
313.15 K	786.1	1138
323.15 K	777.85	1108.2

C=C1CCC2CC1C2(C)C (stereo not drawn) [β-pinene] + CC(C)(C)O
Details	excess molar enthalpy [kcal/mol]	mass density [kg/m3]	speed of sound [m/s]
[2], 303.15 K, x1 = 0.0529	0.0559	–	–
[2], 303.15 K, x1 = 0.109	0.102	–	–
[2], 303.15 K, x1 = 0.2159	0.162	–	–
[2], 303.15 K, x1 = 0.3175	0.192	–	–
[2], 303.15 K, x1 = 0.4299	0.198	–	–
[2], 303.15 K, x1 = 0.5331	0.201	–	–
[2], 303.15 K, x1 = 0.6229	0.194	–	–
[2], 303.15 K, x1 = 0.7198	0.175	–	–
[2], 303.15 K, x1 = 0.8249	0.15	–	–
[2], 303.15 K, x1 = 0.9096	0.114	–	–
[2], 303.15 K, x1 = 0.9686	0.0566	–	–
[2], 313.15 K, x1 = 0.0529	0.0538	–	–
[2], 313.15 K, x1 = 0.109	0.104	–	–
[2], 313.15 K, x1 = 0.2159	0.179	–	–
[2], 313.15 K, x1 = 0.3175	0.217	–	–
[2], 313.15 K, x1 = 0.4299	0.229	–	–
[2], 313.15 K, x1 = 0.5331	0.238	–	–
[2], 313.15 K, x1 = 0.6229	0.235	–	–
[2], 313.15 K, x1 = 0.7198	0.22	–	–
[2], 313.15 K, x1 = 0.8249	0.184	–	–
[2], 313.15 K, x1 = 0.9096	0.139	–	–
[2], 313.15 K, x1 = 0.9686	0.0621	–	–
[2], 323.15 K, x1 = 0.0529	0.102	–	–
[2], 323.15 K, x1 = 0.109	0.141	–	–
[2], 323.15 K, x1 = 0.2159	0.201	–	–
[2], 323.15 K, x1 = 0.3175	0.236	–	–
[2], 323.15 K, x1 = 0.4299	0.251	–	–
[2], 323.15 K, x1 = 0.5331	0.263	–	–
[2], 323.15 K, x1 = 0.6229	0.262	–	–
[2], 323.15 K, x1 = 0.7198	0.248	–	–
[2], 323.15 K, x1 = 0.8249	0.199	–	–
[2], 323.15 K, x1 = 0.9096	0.147	–	–
[2], 323.15 K, x1 = 0.9686	0.0528	–	–
[3], 303.15 K, x1 = 0.0534	–	782.04	1110
[3], 303.15 K, x1 = 0.1048	–	787.79	1118.6
[3], 303.15 K, x1 = 0.2017	–	798.21	1135.6
[3], 303.15 K, x1 = 0.2814	–	806.31	1150.6
[3], 303.15 K, x1 = 0.4041	–	817.92	1173.7
[3], 303.15 K, x1 = 0.5042	–	826.75	1192.6
[3], 303.15 K, x1 = 0.6025	–	834.76	1210.5
[3], 303.15 K, x1 = 0.7042	–	842.46	1228.3
[3], 303.15 K, x1 = 0.8048	–	849.62	1244.8
[3], 303.15 K, x1 = 0.9007	–	856.11	1260.2
[3], 303.15 K, x1 = 0.9495	–	859.38	1268.7
[3], 313.15 K, x1 = 0.0561	–	771.94	1066.4
[3], 313.15 K, x1 = 0.108	–	777.84	1076
[3], 313.15 K, x1 = 0.2041	–	788.5	1094.3
[3], 313.15 K, x1 = 0.2996	–	798.32	1112.7
[3], 313.15 K, x1 = 0.4028	–	808.25	1132.3
[3], 313.15 K, x1 = 0.5039	–	817.37	1151
[3], 313.15 K, x1 = 0.5964	–	825.06	1167.1
[3], 313.15 K, x1 = 0.6957	–	832.77	1183.8
[3], 313.15 K, x1 = 0.7979	–	840.16	1201.1
[3], 313.15 K, x1 = 0.893	–	846.86	1216.7
[3], 313.15 K, x1 = 0.9475	–	850.67	1226.2
[3], 323.15 K, x1 = 0.0554	–	761.34	1027.2
[3], 323.15 K, x1 = 0.1025	–	766.94	1036.7
[3], 323.15 K, x1 = 0.2016	–	–	1056.6
[3], 323.15 K, x1 = 0.2032	–	778.49	–
[3], 323.15 K, x1 = 0.3022	–	788.82	1076.4
[3], 323.15 K, x1 = 0.3988	–	798.4	1095.2
[3], 323.15 K, x1 = 0.5053	–	808.25	1115.2
[3], 323.15 K, x1 = 0.5996	–	816.33	1132.3
[3], 323.15 K, x1 = 0.7001	–	824.27	1149.5
[3], 323.15 K, x1 = 0.7941	–	831.23	–
[3], 323.15 K, x1 = 0.799	–	–	1165.8
[3], 323.15 K, x1 = 0.8861	–	–	1180.1
[3], 323.15 K, x1 = 0.8905	–	838.16	–
[3], 323.15 K, x1 = 0.9367	–	–	1188.6
[3], 323.15 K, x1 = 0.9453	–	842.1	–

CC(C)(C)O [2-methylpropan-2-ol]
[1]
Details	mass density [kg/m3]	speed of sound [m/s]
303.15 K	775.75	1101.9
313.15 K	765.05	1056.4
323.15 K	754.12	1015.9

C=C1CCC2CC1C2(C)C (stereo not drawn) [β-pinene]
[1]
Details	mass density [kg/m3]	speed of sound [m/s]
283.15 K	879.07	1354.7
298.15 K	867.11	1295.1
303.15 K	863.17	1278.6
313.15 K	854.87	1236.3
323.15 K	846.75	1200.7
